Results from paper PMC4546618, “Casitas B-Lineage Lymphoma RING Domain Inhibitors Protect Mice against High-Fat Diet-Induced Obesity and Insulin Resistance” (PLoS ONE, 2015).
Read-outs that look alike come from different tables or passages of the source. *1 amine or outer side, *2 acyl side, *3 side chain or, on linkers, in order; H or OH if unused. Where a SMILES comes first, the peptide text is derived from it. [ ]: non-standard residue; d: D form. X2 = CC(=O)CN(CCCC[C@H](N[*:1])C(=O)[*:2])C(C)=O; Pro(trans-4-F) = O=C(O)[C@@H]1C[C@@H](F)CN1; X1 = CC(=O)N(O)CCCC[C@H](N[*:1])C(=O)[*:2]; Phe(3-F) = N[C@@H](Cc1cccc(F)c1)C(=O)O; Thz = O=C(O)[C@@H]1CSCN1; Aze = O=C(O)[C@@H]1CCN1

Key:
Cbl (RING) protein = molecular target: T1, Cbl (RING) protein (Homo sapiens, UniProt P22681); assay: Fluorescence polarization (FP) assay, competition with FITC-βA-PFKPP-NH2 probe; assay type: binding; conditions: probe FITC-βA-PFKPP-NH2 100 nmol/L, Cbl (RING) protein 3 μmol/L, PBS pH 7.4
T1 construct: including the linker and RING domain (codon 358–457); GST (Glutathione S-Transferase); made in house
T1 sequence (P22681 358-457): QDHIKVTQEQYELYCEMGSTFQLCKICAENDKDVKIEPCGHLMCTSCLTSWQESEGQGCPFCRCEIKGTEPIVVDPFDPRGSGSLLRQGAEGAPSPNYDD
Method: Peptides and peptide mimetics were purchased from MitenChem (China) with a purity ≥ 98%. Concentrations values of reconstituted peptides were determined by amino acid analysis at the protein core facility (Chengdu Medical College). The recombinant Cbl protein was produced by the Chengdu Medical College Protein Core Facility and was described previously. The c-Cbl (RING) protein, including the linker and RING domain (codon 358–457), was tagged with Glutathione S-Transferase (GST) and purified with GSH-Sepharose (Shanghai Biopharma).
The FP assay was developed and validated previously. Briefly, fluorescein-labeled probe (FITC-βA-PFKPP-NH2, 100 nmol/L) and Cbl (RING) protein (3 μmol/L) were mixed and diluted to the final concentration using 0.01% Triton X-100 in PBS (pH = 7.4). Then, 19 μl of this master mix was loaded to each reaction well. The peptides or peptide mimetics were then loaded to the designated wells (1 μl, 10 μmol/L– 0.078 μmol/L, half-fold dilutions). The total fluorescence and polarization values were measured at an excitation wavelength of 485 nm and an emission wavelength of 538 nm using a ZS-2 plate reader. The data was fitted, and the ΔmP, Kd, and Ki values were estimated, using SigmaPlot 11.0.

mice = assay: Acute toxicity in mice; assay type: in vivo; conditions: up to 15 mg/kg i.p.; for signs of acute toxicity: 72 hours; for death of animals: another 14 days following the initial examination; for H&E staining of livers, spleens and kidneys: end of experiment
Method: (§1) All experiments were approved by the institutional Animal Care and Use Committee (Chengdu Medical College, China). All experiments were carried out in 10-week-old male mice maintained on the C57BL/6 background. All the animals were kept on a 12-h light/dark cycle with free access to food and water.
The control group (n = 10) received vehicle only. Eight groups (10 mice each) were treated with increasing doses of either peptide 1, 3, 10, 34, 2, 60, 49, and 51 up to 15 mg/kg by i.p. Number of death, sedation, spontaneous motor activity, alertness, ptosis, dyspnea, convulsion, diarrhea, urination, postural reflex, piloerection, nociception, grooming, vocalization, rearing, climbing and aggression were observed every 12 hours for 72 h. Animals were maintained for another 14 days after the initial examination. We planned to sacrifice the animals if they show severe signs of pain or distress, a body weight loss in excess of 15% of its body weight, or a deterioration of the body condition score to BC2(-) or below. However, none of the animals qualified for the mentioned the symptoms. No animals died during the whole study. At the end of the experiment, animals were euthanized by CO2 asphyxiation followed by cervical dislocation, the livers, spleens and kidneys were collected and formalin-fixed paraffin-embedded for H&E staining.

[1] = Pharmacokinetic studies, plasma concentration after i.p. injection; assay type: in vivo; conditions: mice, i.p. 4 mg/kg; for Cmax: male, C57BL/6, mouse, plasma, ip, read-out: maximum concentration in plasma; for plasma concentrations compared to the parental peptides 1 and 2: at each time point after 1 hour
Method: as §1
Peptides (1, 3, 10, 34, 2, 60, 49, and 51) were dissolved in sterile aqueous 5% dextrose and administered to mice by i.p. injection (4 mg/kg). Blood samples were collected from the tail tip at 0, 0.5, 1, 6, 12, 18, 24 and 48 hours. Plasma samples were harvested by centrifugation and stored at -80°C until assayed. Peptide concentrations in plasma were determined by Reversed-Phase High-Performance Liquid Chromatography (RP-HPLC) with electrospray ionization mass spectrometric ([…]) detection. Samples were assayed with a series of 8 calibration standards of peptide in plasma at concentrations ranging from 50 to 6000 μg/L. Peptide concentrations were determined by comparing to the standards.

mice fed a high-fat diet [2] = assay: High-fat diet-induced obesity: body weight, food intake, body composition, adipocyte volume; assay type: in vivo; conditions: daily i.p. 5 mg/kg; for percentage of perigonadal fat mass / adipocyte volume: 12 weeks; for percentage of perigonadal fat mass: NMR, vehicle 8 ± 0.8%; for adipocyte volume: adipocytes from epididymal fat pad, vehicle 510 ± 42 pL
Method: as §1
(§2) Animals (n = 90) were randomly assigned to one of the nine groups (Table 1). Animals were fed ad libitum with a high-fat diet (60% of caloric intake from fat (70% saturated fat), 20% from carbohydrates, and 20% from protein) before experiments and for another 12 weeks during the experiments. Food intake was measured manually on a daily basis. Eight groups of animals were treated with indicated peptides with a daily i.p. injection at 5 mg/kg and one group of animals were treated with vehicle.
Body composition was measured using nuclear magnetic resonance (NMR) technology at Chengdu College core facility. Epididymal fat pads were excised and adipocytes were isolated. Cells were then fixed using 2% OsO4 in PBS overnight at 37°C [2].

mice fed a high-fat diet [3] = assay: Glucose tolerance test after 12 weeks of treatment on high-fat diet; assay type: in vivo; conditions: overnight fasted mice, 2 g/kg glucose i.p., after 12 weeks daily i.p. 5 mg/kg on high-fat diet
Method: as §1, §2
After receiving 12 weeks of treatment as described above, glucose tolerance tests were performed in overnight fasted mice. Each mouse received a 2 g/kg glucose through i.p. Blood samples were obtained from the tail tip at 0, 30, 60, 90, and 120 min. Insulin concentrations were measured using mouse insulin Elisa kits (ChrystalChem) using mouse standards. Glucose levels were measured using a glucometer (Roche).

mice fed a high-fat diet [4] = assay: Indirect energy expenditure and physical activity measurement; assay type: in vivo; conditions: after 12 weeks daily i.p. 5 mg/kg on high-fat diet; for Oxygen consumption VO2: vehicle 4.15 ± 0.55; for Ambulatory day activity / Ambulatory night activity: photobeam break counts; for Ambulatory day activity: vehicle 2,069 ± 705; for Ambulatory night activity: vehicle 6,289 ± 1,216
Method: as §1, §2
After receiving 12 weeks of treatment as described above, rates of oxygen consumption (VO2) was measured using a four-chamber indirect calorimeter (Langguan, China, air flow of 0.5 l/min). A total of 2-hour measurement for each animal was conducted at 15-minuate intervals under room temperature (22°C). Ambulatory activity was estimated by counting the number of photobeam breaks in a three-sensor chamber instrument (Rui Pharm, China), and the cumulative ambulatory activity counts were recorded every hour. A total of 12 h-day time and 12 h-night activity were recorded for each animal.

In the case of CC(=O)N[C@@H](CCCCN)C(=O)N1C[C@H](F)C[C@H]1C(=O)N[C@@H](C)C(=O)N[C@H](C(=O)N[C@@H](CCCCN)C(N)=O)[C@@H](C)O [Peptide 51, Ac-K(t)ATK-NH2] (Ac-K[Pro(trans-4-F)]ATK-NH2), the Ki (Cbl (RING) protein) is reported as 3.8 ± 1.1 µM, the “signs of acute toxicity” value (mice) is reported as “did not show vital signs of acute toxicity” and the death of animals (mice) is reported as “None of the animals died”. For the same compound, the “H&E staining of livers, spleens and kidneys” value (from here on “H&E staining of livers”) (mice) was “does not show any sign of injuries”, the Cmax ([1]; observed in 60 min) was 4620 ng/mL and the “plasma concentrations compared to the parental peptides 1 and 2” value [1] was “greater plasma concentrations”. For the same compound, the “body weight gain vs vehicle, parental and negative control peptide groups” value (mice fed a high-fat diet [2]; 12-week feeding period) was “significant differences in body weight gain”, the “percentage of perigonadal fat mass” value (mice fed a high-fat diet [2]) was 4.0 ± 0.8% and the adipocyte volume (mice fed a high-fat diet [2]) was 250 ± 40 pL. The “blood insulin levels compared to the vehicle group” value (mice fed a high-fat diet [3]) was “significant reduction in blood insulin levels”, the “glucose tolerance compared to the vehicle group” value (mice fed a high-fat diet [3]) was “better glucose tolerance” and the “Oxygen consumption VO2” value (mice fed a high-fat diet [4]) was 5.99 ± 0.95 mL/g/h. For the same compound, the Ambulatory day activity (mice fed a high-fat diet [4]) was 4,953 ± 1,014 per 12 h and the Ambulatory night activity (mice fed a high-fat diet [4]) was 19,251 ± 3,058 per 12 h.

Work on CC(=O)N[C@@H](CCCCN)C(=O)N1CSC[C@H]1C(=O)N[C@H](C(=O)N[C@H](C(=O)N[C@@H](CCCCN)C(N)=O)[C@@H](C)O)C(C)C [Peptide 53, Ac-K(r)VTK-NH2] (Ac-K[Thz]VTK-NH2) yielded a Ki (Cbl (RING) protein) of 91.2 ± 6.6 µM.

With CC(=O)N1CCC[C@H]1C(=O)N[C@@H](Cc1cccc(F)c1)C(=O)N[C@@H](CCCCN)C(=O)N1CCC[C@H]1C(=O)N1CC[C@H]1C(N)=O [Peptide 19, Ac-P(h)KP(q)-NH2] (Ac-P[Phe(3-F)]KP[Aze]-NH2) the Ki (Cbl (RING) protein) was > 250 µM.

Work on CC(=O)N[C@@H](CCCCN)C(=O)N1CC[C@H]1C(=O)N[C@@H](C)C(=O)N[C@H](C(=O)N[C@@H](CCCCN)C(N)=O)[C@@H](C)O [Peptide 48, Ac-K(q)ATK-NH2] (Ac-K[Aze]ATK-NH2) yielded a Ki (Cbl (RING) protein) of 59.6 ± 13.5 µM.

With CC(=O)N[C@@H](CCCCN)C(=O)N1C[C@H](F)C[C@H]1C(=O)N[C@@H](C)C(=O)N[C@@H](CC(C)C)C(=O)N[C@@H](CCCCN)C(N)=O [Peptide 60, Ac-K(t)ALK-NH2] (Ac-K[Pro(trans-4-F)]ALK-NH2) the Ki (Cbl (RING) protein) was 228 ± 20.2 µM, the “signs of acute toxicity” value (mice) was “did not show vital signs of acute toxicity” and the death of animals (mice) was “None of the animals died”. For the same compound, the “H&E staining of livers” value (mice) was “does not show any sign of injuries”, the Cmax ([1]; observed in 60 min) was 4280 ng/mL and the “plasma concentrations compared to the parental peptides 1 and 2” value [1] was “greater plasma concentrations”. The “percentage of perigonadal fat mass” value (mice fed a high-fat diet [2]) was 7.8 ± 0.7%, the adipocyte volume (mice fed a high-fat diet [2]) was 520 ± 26 pL and the “Oxygen consumption VO2” value (mice fed a high-fat diet [4]) was 4.16 ± 0.29 mL/g/h. For the same compound, the Ambulatory day activity (mice fed a high-fat diet [4]) was 2,025 ± 945 per 12 h and the Ambulatory night activity (mice fed a high-fat diet [4]) was 5,993 ± 1,278 per 12 h.

CC(=O)N[C@@H](CCCCN)C(=O)N1C[C@H](F)C[C@H]1C(=O)N[C@@H](C)C(=O)N[C@@H](C)C(=O)N[C@@H](CCCCN)C(N)=O [Peptide 57, Ac-K(t)AAK-NH2] (Ac-K[Pro(trans-4-F)]AAK-NH2) gave a Ki (Cbl (RING) protein) of 179 ± 10.2 µM.

In the case of CC(=O)N1CC[C@H]1C(=O)N[C@@H](Cc1cccc(F)c1)C(=O)N[C@@H](CCCCN)C(=O)N1CCC[C@H]1C(=O)N1CCC[C@H]1C(N)=O [Peptide 33, Ac-(q) (h)KPP-NH2] (Ac-[Aze][Phe(3-F)]KPP-NH2), the Ki (Cbl (RING) protein) is reported as > 250 µM.

In the case of CC(=O)N[C@@H](CCCCN(O)C(C)=O)C(=O)N1CCC[C@H]1C(=O)N[C@@H](C)C(=O)N[C@H](C(=O)N[C@@H](CCCCN)C(N)=O)[C@@H](C)O [Peptide 40, Ac-(v)PATK-NH2] (Ac-[X1]PATK-NH2), the Ki (Cbl (RING) protein) is reported as 51.8 ± 0.8 µM.

CC(=O)N1C[C@H](F)C[C@H]1C(=O)N[C@@H](Cc1cccc(F)c1)C(=O)N[C@@H](CCCCN)C(=O)N1CCC[C@H]1C(=O)N1CCC[C@H]1C(N)=O [Peptide 36, Ac-(t) (h)KPP-NH2] (Ac-[Pro(trans-4-F)][Phe(3-F)]KPP-NH2) showed a Ki (Cbl (RING) protein) of 14.5 ± 2.9 µM.

CC[C@H](C)[C@H](NC(=O)[C@H](C)NC(=O)[C@@H]1C[C@@H](F)CN1C(=O)[C@H](CCCCN)NC(C)=O)C(=O)N[C@@H](CCCCN)C(N)=O [Peptide 59, Ac-K(t)AIK-NH2] (Ac-K[Pro(trans-4-F)]AIK-NH2) showed a Ki (Cbl (RING) protein) of 145 ± 18.3 µM.

Compound CC(=O)N1CCC[C@H]1C(=O)N[C@@H](Cc1cccc(F)c1)C(=O)N[C@@H](CCCCN)C(=O)N1CCC[C@H]1C(=O)N1CSC[C@H]1C(N)=O [Peptide 20, Ac-P(h)KP(r)-NH2] (Ac-P[Phe(3-F)]KP[Thz]-NH2) has a Ki (Cbl (RING) protein) of 3.7 ± 0.4 µM.

Compound CC(=O)CN(CCCC[C@H](NC(=O)[C@H](Cc1cccc(F)c1)NC(=O)[C@@H]1CSCN1C(C)=O)C(=O)N1CCC[C@H]1C(=O)N1CCC[C@H]1C(N)=O)C(C)=O [Peptide 39, Ac-(r) (h) (w)PP-NH2] (Ac-[Thz][Phe(3-F)][X2]PP-NH2) has a Ki (Cbl (RING) protein) of 28.3 ± 2.8 µM.

In the case of Ac-KPATK-NH2 [Peptide 2, Ac-KPATK-NH2], the Ki (Cbl (RING) protein) is reported as 4.7 ± 1.2 µM, the “signs of acute toxicity” value (mice) is reported as “did not show vital signs of acute toxicity” and the death of animals (mice) is reported as “None of the animals died”. The “H&E staining of livers” value (mice) was “does not show any sign of injuries”, the Cmax ([1]; observed in 30 min) was 3370 ng/mL and the “percentage of perigonadal fat mass” value (mice fed a high-fat diet [2]) was 6.7 ± 0.5%. For the same compound, the adipocyte volume (mice fed a high-fat diet [2]) was 440 ± 58 pL, the “Oxygen consumption VO2” value (mice fed a high-fat diet [4]) was 4.22 ± 0.42 mL/g/h and the Ambulatory day activity (mice fed a high-fat diet [4]) was 2,342 ±1,002 per 12 h. For the same compound, the Ambulatory night activity (mice fed a high-fat diet [4]) was 6,721 ± 1,032 per 12 h.
